Results: US7341983B2, “Antimicrobial compositions including carboxylic acids and alkoxylated amines” (Ecolab Inc., priority 2003, dated 2008)

Assay: Solution appearance with various types and amounts of alkoxylated amines
Type: physicochemical
Conditions: 2.4 wt-% octanoic acid, 21 wt-% phosphoric acid (75%), 8.0 wt-% citric acid, remainder water
Description: Test compositions were made with varying amounts and types of alkoxylated amines. These were made to include 2.4 wt-% octanoic acid, 21 wt-% phosphoric acid (75%), 8.0 wt-% citric acid, varying amounts of alkoxylated amine, with the remainder water.

## iso-(2-hydroxyethyl) isodecyloxypropylamine [Alkoxylated Amine 6]
2.5 wt-% alkoxylated amine
  Solution appearance: hazy yellow
3 wt-% alkoxylated amine
  Solution appearance: hazy yellow
3.5 wt-% alkoxylated amine
  Solution appearance: hazy
4 wt-% alkoxylated amine
  Solution appearance: milky yellow
4.5 wt-% alkoxylated amine
  Solution appearance: opaque-yellow
5 wt-% alkoxylated amine
  Solution appearance: separated
